Assay results from US20250074892A1, “CARBONYL BRIDGED HETEROCYCLIC COMPOUND, AND COMPOSITION AND APPLICATION THEREOF” (BEIJING SCITECH-MQ PHARMACEUTICALS LIMITED, priority 2022, published 2025).

Tests used:
L929 cells = assay: Inhibition of cell necrosis (CCK8 method), L929 cells; assay type: cell-based, mouse; conditions: for IC50: 4-8 hours, CCK8
Procedure: (§1) In this assay example 2, under the condition of inducing programmed cell necrosis of HT29 and L929 cell lines, different concentrations of the test compounds were added to test the IC50 of the rescue effect of the test compounds on the programmed necrosis.
(§2) • Compounds: dissolved in DMSO to make a 10 mM solution; • TNF-α: initial concentration of 100 µg/mL; • Z-VAD-FMK: dissolved in DMSO to make a 10 mM solution; • AT-406: dissolved in DMSO to make a 10 mM solution. • Cell lines: HT29 cells were cultured in McCoy's 5A medium containing 10% fetal bovine serum, 100 U/mL penicillin, and 100 µg/mL streptomycin, and L929 cells were cultured in MEM medium containing 10% horse serum, 100 U/mL penicillin, and 100 µg/mL streptomycin.
(§3) 1. The test compound was dissolved in DMSO to form a stock solution, and a gradient dilution was performed; the solution was then diluted with the corresponding culture medium to obtain a solution with 10 times the working concentration.
(§4) 2. The cells in the logarithmic growth phase were diluted with culture medium to a specific cell concentration. 80 µL of the cell suspension was added to a 96-well plate, so that the cell densities of HT29 and L929 were 1.2*10^4 cells/well and 2.0*10^4 cells/well, respectively. The plate was cultured in a 37° C., 5% carbon dioxide incubator overnight.
(§5) 3. […] of the compound solution was added to each well of the 96-well plate inoculated with cells. The compounds to be tested were serially diluted 4-fold to obtain 9 concentrations in duplicate, starting from a maximum concentration of 10 μM. At the same time, a control group without compound addition was set up.
(§6) 4. After the cells were cultured for another 30 minutes, 10 μL of the inducer mixture was added to each well. The final concentrations of Human TNF-α, AT-406 and Z-VAD-FMK in HT29 cells were 20 ng/mL, […] and 20 μM, respectively; and the final concentrations of Murine TNF-α and Z-VAD-FMK in L929 cells were 20 ng/mL and 25 μM, respectively.
(§7) 5. The 96-well plate in which compounds and inducer were added was placed in a 37° C., 5% carbon dioxide incubator for further culture, wherein HT29 cells were cultured for 16 hours and L929 cells were cultured for 4-8 hours. Cell viability was detected by CCK8. GraphPad Prism software was used to prepare a dose-effect curve and IC50 was calculated.

HT29 cells = assay: Inhibition of cell necrosis (CCK8 method), HT29 cells; assay type: cell-based, human; conditions: for IC50: HT29, Human TNF-α/AT-406/Z-VAD-FMK, 16 hours, CCK8
Procedure: as §1, §2, §3, §4, §5, §6, §7

[1] = Mus musculus, L929, L929, Murine TNF-α/Z-VAD-FMK

SMILES | IC50 (L929 cells; [1]) [nM] | IC50 (HT29 cells; Homo sapiens, HT-29, 16 h) [nM] | also measured
Cc1ccc(OCCCO)cc1-c1ccnc(N2CCC(C(=O)N3N=CCC3c3ccccc3F)CC2)c1 (stereo not shown) [Example 20, (5-(2-fluorophenyl)-4,5-dihydro-1H-pyrazol-1-yl)(1-(4-(5-(3-hydroxypropoxy)-2-methylphenyl)pyridin-2-yl)piperidin-4-yl)methanone] |  |  | IC50 (L929 cells; L929, Murine TNF-α/Z-VAD-FMK): 10 to 50 nM; IC50 (HT29 cells): 10 to 50 nM
O=C(C1CCN(c2cc(-c3cc(OCCO)ccc3F)ccn2)CC1)N1N=CCC1c1cc(F)cc(F)c1 (stereo not shown) [Example 22, (5-(3,5-difluorophenyl)-4,5-dihydro-1H-pyrazol-1-yl)(1-(4-(2-fluoro-5-(2-hydroxyethoxy)phenyl)pyridin-2-yl)piperidin-4-yl)methanone] | 50 to 100 | ≤ 10 | 
O=C(C1CCN(c2cc(-c3cc(OCCCCCO)ccc3F)ccn2)CC1)N1N=CCC1c1cc(F)cc(F)c1 (stereo not shown) [Example 25, (5-(3,5-difluorophenyl)-4,5-dihydro-1H-pyrazol-1-yl)(1-(4-(2-fluoro-5-((5-hydroxypentyl)oxy)phenyl)pyridin-2-yl)piperidin-4-yl)methanone] | 10 to 50 | ≤ 10 | 
CC(C)(O)CCCCOc1ccc(F)c(-c2ccnc(N3CCC(C(=O)N4N=CCC4c4cc(F)cc(F)c4)CC3)c2)c1 (stereo not shown) [Example 26, (5-(3,5-difluorophenyl)-4,5-dihydro-1H-pyrazol-1-yl)(1-(4-(2-fluoro-5-((5-hydroxy-5-methylhexyl)oxy)phenyl)pyridin-2-yl)piperidin-4-yl)methanone] | 10 to 50 | ≤ 10 | 
O=C(C1CCN(c2cc(-c3cc(OCCCF)ccc3F)ccn2)CC1)N1N=CCC1c1cc(F)cc(F)c1 (stereo not shown) [Example 27, (5-(3,5-difluorophenyl)-4,5-dihydro-1H-pyrazol-1-yl)(1-(4-(2-fluoro-5-(3-fluoropropoxy)phenyl)pyridin-2-yl)piperidin-4-yl)methanone] | 50 to 100 | ≤ 10 | 
COCCOc1ccc(C)c(-c2ccnc(N3CCC(C(=O)N4N=CCC4c4ccccc4)CC3)c2)c1 (stereo not shown) [Example 28, (1-(4-(5-(2-methoxyethoxy)-2-methylphenyl)pyridin-2-yl)piperidin-4-yl)(5-phenyl-4,5-dihydro-1H-pyrazol-1-yl)methanone] | 50 to 100 | ≤ 10 | 
Cc1ccc(OCCCO)cc1-c1ccnc(N2CCC(C(=O)N3N=CCC3c3ccccc3F)CC2)c1 (stereo not shown) [Example 29, (5-(2-fluorophenyl)-4,5-dihydro-1H-pyrazol-1-yl)(1-(4-(5-(3-hydroxypropoxy)-2-methylphenyl)pyridin-2-yl)piperidin-4-yl)methanone] |  | 10 to 50 | IC50 (L929 cells; L929, Murine TNF-α/Z-VAD-FMK): 50 to 100 nM
COCCCOc1ccc(F)c(-c2ccnc(N3CCC(C(=O)N4N=CCC4c4cc(F)cc(F)c4)CC3)c2)c1 (stereo not shown) [Example 30, (5-(3,5-difluorophenyl)-4,5-dihydro-1H-pyrazol-1-yl)(1-(4-(2-fluoro-5-(3-methoxypropoxy)phenyl)pyridin-2-yl)piperidin-4-yl)methanone] | 50 to 100 | ≤ 10 | 
Cc1ccc(OCCCO)cc1-c1ccnc(N2CCC(C(=O)N3N=CCC3c3ccccc3)CC2)c1 (stereo not shown) [Example 31, (1-(4-(5-(3-hydroxypropoxy)-2-methylphenyl)pyridin-2-yl)piperidin-4-yl)(5-phenyl-4,5-dihydro-1H-pyrazol-1-yl)methanone] | 10 to 50 | ≤ 10 | 
COCCCCOc1ccc(C)c(-c2ccnc(N3CCC(C(=O)N4N=CCC4c4cc(F)cc(F)c4)CC3)c2)c1 (stereo not shown) [Example 32, (5-(3,5-difluorophenyl)-4,5-dihydro-1H-pyrazol-1-yl)(1-(4-(5-(4-methoxybutoxy)-2-methylphenyl)pyridin-2-yl)piperidin-4-yl)methanone] |  | ≤ 10 | IC50 (L929 cells; L929, Murine TNF-α/Z-VAD-FMK): 10 to 50 nM
Cc1ccc(OCC2CCOCC2)cc1-c1ccnc(N2CCC(C(=O)N3N=CCC3c3cc(F)cc(F)c3)CC2)c1 (stereo not shown) [Example 33, (5-(3,5-difluorophenyl)-4,5-dihydro-1H-pyrazol-1-yl)(1-(4-(2-methyl-5-((tetrahydro-2H-pyran-4-yl)methoxy)phenyl)pyridin-2-yl)piperidin-4-yl)methanone] | 10 to 50 | ≤ 10 | 
COCCCCOc1ccc(C)c(-c2ccnc(N3CCC(C(=O)N4N=CCC4c4cc(F)cc(F)c4)CC3)c2)c1 (stereo not shown) [Example 34, (5-(3,5-difluorophenyl)-4,5-dihydro-1H-pyrazol-1-yl)(1-(4-(5-(4-methoxybutoxy)-2-methylphenyl)pyridin-2-yl)piperidin-4-yl)methanone] |  |  | IC50 (L929 cells; L929, Murine TNF-α/Z-VAD-FMK): 50 to 100 nM; IC50 (HT29 cells): 10 to 50 nM
Cc1ccc(OCCCCO)cc1-c1ccnc(N2CCC(C(=O)N3N=CCC3c3cc(F)cc(F)c3)CC2)c1 (stereo not shown) [Example 35, (5-(3,5-difluorophenyl)-4,5-dihydro-1H-pyrazol-1-yl)(1-(4-(5-(4-hydroxybutoxy)-2-methylphenyl)pyridin-2-yl)piperidin-4-yl)methanone] |  |  | IC50 (L929 cells; L929, Murine TNF-α/Z-VAD-FMK): 50 to 100 nM; IC50 (HT29 cells): 10 to 50 nM
O=C(C1CCN(c2cc(-c3cc(OCCCCO)ccc3F)ccn2)CC1)N1N=CCC1c1cc(F)cc(F)c1 (stereo not shown) [Example 36, (5-(3,5-difluorophenyl)-4,5-dihydro-1H-pyrazol-1-yl)(1-(4-(2-fluoro-5-(4-hydroxybutoxy)phenyl)pyridin-2-yl)piperidin-4-yl)methanone] | 50 to 100 | ≤ 10 | 
O=C(C1CCN(c2cc(-c3cc(OCC(F)(F)CO)ccc3F)ccn2)CC1)N1N=CCC1c1cc(F)cc(F)c1 (stereo not shown) [Example 37, (1-(4-(5-(2,2-difluoro-3-hydroxypropoxy)-2-fluorophenyl)pyridin-2-yl)piperidin-4-yl) (5-(3,5-difluorophenyl)-4,5-dihydro-1H-pyrazol-1-yl)methanone] | 10 to 50 | ≤ 10 | 
O=C(C1CCN(c2nccc(-c3cc(OCCCO)ccc3F)n2)CC1)N1N=CCC1c1cc(F)cc(F)c1 (stereo not shown) [Example 38, (5-(3,5-difluorophenyl)-4,5-dihydro-1H-pyrazol-1-yl)(1-(4-(2-fluoro-5-(3-hydroxypropoxy)phenyl)pyrimidin-2-yl)piperidin-4-yl)methanone] | 50 to 100 | 10 to 50 | 
CC(C)(O)CCOc1ccc(F)c(-c2ccnc(N3CCC(C(=O)N4N=CCC4c4cc(F)cc(F)c4)CC3)n2)c1 (stereo not shown) [Example 39, (5-(3,5-difluorophenyl)-4,5-dihydro-1H-pyrazol-1-yl)(1-(4-(2-fluoro-5-(3-hydroxy-3-methylbutoxy)phenyl)pyrimidin-2-yl)piperidin-4-yl)methanone] | 50 to 100 | ≤ 10 | 
CCC(O)(CC)COc1ccc(F)c(-c2ccnc(N3CCC(C(=O)N4N=CCC4c4cc(F)cc(F)c4)CC3)c2)c1 (stereo not shown) [Example 44, [5-(3,5-difluorophenyl)-4,5-dihydro-1H-pyrazol-1-yl]-[1-[4-[5-(2-ethyl-2-hydroxybutoxy)-2-fluorophenyl]pyridin-2-yl]piperidin-4-yl]methanone] | 10 to 50 | ≤ 10 | 
O=C(C1CCN(c2cc(-c3cc(OCC4(O)CC4)ccc3F)ccn2)CC1)N1N=CCC1c1cc(F)cc(F)c1 (stereo not shown) [Example 45, [5-(3,5-difluorophenyl)-4,5-dihydro-1H-pyrazol-1-yl]-[1-[4-[2-fluoro-5-[(1-hydroxycyclopropyl)methoxy]phenyl]pyridin-2-yl]piperidin-4-yl]methanone] | 10 to 50 | ≤ 10 | 
O=C(C1CCN(c2cc(-c3cc(OCC4(O)CCC4)ccc3F)ccn2)CC1)N1N=CCC1c1cc(F)cc(F)c1 (stereo not shown) [Example 46, (5-(3,5-difluorophenyl)-4,5-dihydro-1H-pyrazol-1-yl)(1-(4-(2-fluoro-5-((1-hydroxycyclobutyl)methoxy)phenyl)pyridin-2-yl)piperidin-4-yl)methanone] | 10 to 50 | ≤ 10 | 
CC(C)(O)COc1ccc(F)c(-c2ccnc(N3CCC(C(=O)N4N=CCC4c4cc(F)cc(F)c4)CC3)c2)c1 (stereo not shown) [Example 47, (5-(3,5-difluorophenyl)-4,5-dihydro-1H-pyrazol-1-yl-5-deuterium)(1-(4-(2-fluoro-5-(2-hydroxy-2-methylpropoxy)phenyl)pyridin-2-yl)piperidin-4-yl)methanone] |  |  | IC50 (L929 cells; L929, Murine TNF-α/Z-VAD-FMK): 10 to 50 nM; IC50 (HT29 cells): 10 to 50 nM
NC(=O)c1ccc(N2CCC(C(=O)N3N=CCC3c3ccccc3)CC2)nc1 (stereo not shown) [compound 1, reference compound] | > 4000 | 400 to 4000 | inhibitory activity against mouse L929 cells (L929 cells; L929 necrosis): almost no inhibitory activities; inhibitory activity against human HT29 cells (HT29 cells; HT29 necrosis): significantly inferior to those of the compounds of the present application
